PubChem BioAssay (NCI)
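96-well plates; 48 h exposure; 5 concentrations. Endpoints by linear interpolation between flanking doses. Not reached: highest tested concentration assigned. GI50 is the concentration that inhibits growth by half. TGI denotes the concentration required for complete inhibition of growth.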 Where a SMILES comes first, the peptide text is derived from it. [ ]: non-standard residue; d: D form. The star is where a group is joined. NMeF = CN[CH](Cc1ccccc1)C(=O)O; NMeV = CN[CH](C(=O)O)C(C)C; Boc = CC(C)(C)OC(=O)*; OBn = c1ccc(CO*)cc1

What was measured:
Assay in all cases: inhibition of tumour cell growth, NCI panel, 48 h
[1] = system: CCRF-CEM leukemia
[2] = system: HCT-15 colon
[3] = system: MOLT-4 leukemia
[4] = system: NCI/ADR-RES ovarian
[5] = system: PC-3 prostate
[6] = system: SK-MEL-5 melanoma
[7] = system: UACC-257 melanoma
[8] = system: OVCAR-8 ovarian
[9] = system: MCF7 breast
[10] = system: MDA-MB-231 breast

Compound | GI50 [1] | TGI [1] | GI50 [2] | TGI [2] | GI50 [3] | TGI [3] | GI50 [4] | TGI [4] | GI50 [5] | TGI [5] | GI50 [6] | TGI [6] | GI50 [7] | TGI [7] | GI50 [8] | TGI [8] | TGI [9] | TGI [10] | GI50 [9] | GI50 [10]
O=C1C2C(C(=O)[N]1[Hg][c]1ccccc1)C1(Cl)C(Cl)=C(Cl)C2(Cl)C1(Cl)Cl (stereo not given) | 0.365 µM | 10.4 µM | 0.583 µM | 2.2 µM | 1.88 µM | 8.76 µM | 2.69 µM | 8.97 µM | 6.42 µM | 23.7 µM | 1 µM | 2.17 µM | 1.22 µM | 2.52 µM | – | – | – | – | – | –
COc1ccc2oc(-c3ccncc3)cc(=O)c2c1 | – | > 100 µM | – | > 100 µM | – | > 100 µM | – | – | – | – | – | – | – | > 100 µM | – | – | – | – | – | –
CCC[CH2][Sn]1([CH2]CCC)[O]C(=O)C[S]1 | 0.324 µM | 1.57 µM | 1.46 µM | 3.18 µM | 1.39 µM | 5.46 µM | – | – | – | – | 1.44 µM | 3 µM | 1.4 µM | 3.27 µM | 2.11 µM | 5.46 µM | – | – | – | –
CC(C)C(NC(=O)OC(C)(C)C)C(=O)N(C)C(Cc1ccccc1)C(=O)N(C)C(C(=O)N(C)C(C(=O)OCc1ccccc1)C(C)C)C(C)C (stereo not given) (Boc-V[NMeF][NMeV][NMeV]-OBn; configuration not given here) | – | > 100 µM | – | > 100 µM | – | > 100 µM | – | – | – | – | – | > 100 µM | – | > 100 µM | – | > 100 µM | – | – | – | –
COc1ccc(-c2cc(-c3ccccc3)c(C#N)c(=O)[nH]2)cc1 | – | > 100 µM | – | > 100 µM | – | > 100 µM | – | – | – | – | – | > 100 µM | – | > 100 µM | – | > 100 µM | – | – | – | –
CC1OC(OC2C(OC3C[C@@]4(C)C(C[C@H](O)[C@H]5[C@H](C6(C)CCC(C(C)(C)O)O6)CCC54C)[C@]4(C)CC[C@@H](O)C(C)(C)C34)OC(CO)C(O)C2O)C(O)C(O)C1O (stereo not given in full) (tested in a mixture with another compound) | – | > 100 µM | – | > 100 µM | – | > 100 µM | – | – | – | > 100 µM | – | > 100 µM | – | > 100 µM | – | > 100 µM | > 100 µM | > 100 µM | – | –
CCC(=N\NC(N)=S)/C(C)=N/O | – | – | – | > 100 µM | – | – | – | > 100 µM | – | > 100 µM | – | > 100 µM | – | > 100 µM | – | > 100 µM | > 100 µM | > 100 µM | – | –
CC1=CC(=O)c2cccc(NC3=NCCO3)c21 | – | > 100 µM | – | > 100 µM | – | > 100 µM | – | 82.5 µM | – | > 100 µM | – | 42.3 µM | – | – | – | – | – | > 100 µM | – | –
O=C1Cc2ccccc2N1/N=C\c1ccc(O)cc1 | – | > 100 µM | – | > 100 µM | – | > 100 µM | – | – | – | – | – | > 100 µM | – | > 100 µM | – | > 100 µM | – | – | – | –
BrP(NC1CCCCCC1)(c1ccccc1)(c1ccccc1)c1ccccc1 | – | 29 µM | – | 46.3 µM | – | – | – | > 100 µM | – | 5.53 µM | – | 3.18 µM | – | 6.3 µM | – | 10.7 µM | 6.26 µM | 16 µM | – | –
O=C1C2Cc3ccccc3CN2C(=O)N1CN1CCN(CN2C(=O)C3Cc4ccccc4CN3C2=O)CC1 (stereo not given) | – | > 100 µM | – | > 100 µM | – | > 100 µM | – | – | – | – | – | > 100 µM | – | > 100 µM | – | > 100 µM | – | – | – | –
CC(=O)OC1CCC2(C)C(CCC3C2CCC2(C)C(C4=CC(=O)OC4)CCC32)C1 (stereo not given) | 1.45 µM | 4.62 µM | 16.2 µM | > 100 µM | 2.6 µM | 6.3 µM | 8.37 µM | 42.7 µM | 5.07 µM | 25.7 µM | 2.37 µM | 6.58 µM | – | – | 4.2 µM | 36.7 µM | 95.7 µM | 2.81 µM | 9.07 µM | 0.725 µM
